Tests used:
[1] = test system: ECHORC (Watergrass (Calif.)); test: Preemergence weed control under flooded paddy conditions; assay type: in vivo, Echinochloa oryzoides; conditions: rated 3-4 weeks after treatment
Procedure, shortened: (§1)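 Visual injury scored 0-9 against control three to four weeks post-treatment, greenhouse-grown. Application: acetone/water (50/50) solutions dosed directly into flood water (1.5-3 cm over silt loam, planted top 0.5 cm), roughly 0.0313 to 0.500 kg/ha active ingredient.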

ABUTH (Velvetleaf) = test: Preemergence herbicidal evaluation; assay type: in vivo, Abutilon theophrasti; conditions: rated 4-5 weeks after treatment
Procedure, shortened: (§2)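 Steps: mix seeds into potting soil; plant atop ~1 inch soil; spray compound in aqueous acetone (~0.0156-0.500 kg/ha equivalent); maintain in greenhouse with watering; rate visually 0-9 versus control at 4-5 weeks.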

CYPIR (Rice Flatsedge) = test: Preemergence weed control under flooded paddy conditions; assay type: in vivo, Cyperus iria; conditions: rated 3-4 weeks after treatment
Procedure, shortened: as §1

[2] = test system: TRZAWR (Wheat, Winter, cv Riband); test: Preemergence herbicidal evaluation; assay type: in vivo, Triticum aestivum; conditions: rated 4-5 weeks after treatment
Procedure, shortened: as §2

[3] = test system: SAGPY (Arrowhead (Pygmaea)); test: Preemergence weed control under flooded paddy conditions; assay type: in vivo, Sagittaria pygmaea; conditions: rated 3-4 weeks after treatment
Procedure, shortened: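 Greenhouse paddy assay. Acetone/water (50/50 v/v) solutions dosed into flood water, equivalent to about 0.0313 to 0.500 kg/ha active ingredient, over seeds planted 0.5 cm deep in silt loam. Score: 0-9 visual, based on stand, vigor, malformation, size and chlorosis, 3 to 4 weeks after treatment.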

MOOVA (Monochoria) = test: Postemergence weed control under flooded paddy conditions; assay type: in vivo, Monochoria vaginalis; conditions: postemergence weeds, 3-4 weeks after treatment
Procedure, shortened: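 Injury ratings (0–9 scale covering stand, vigor, malformation, size, chlorosis and overall appearance versus control) were made three to four weeks after treatment. Test material, about 0.0313 to 0.500 kg/ha a.i. in 50/50 v/v aqueous/acetone, was added to flood water 1.5 to 3 cm deep over 3 to 5 cm weeds and 1.5 to 2.5 leaf rice.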

[4] = test system: IPOSS (Morningglory Spp.); test: Preemergence herbicidal evaluation; assay type: in vivo, Ipomoea Spp.; conditions: rated 4-5 weeks after treatment
Source text: (§3) Results of herbicide evaluation are expressed on a rating scale (0-9). The scale is based upon a visual observation of plant stand, vigor, malformation, size, chlorosis and overall plant appearance as compared with a control.
The preemergence herbicidal activity of the test compounds of the present invention is exemplified by the following tests in which the seeds of a variety of monocotyledonous and dicotyledonous plants are separately mixed with potting soil and planted on top of approximately one inch of soil in separate pint cups. After planting, the cups are sprayed with the selected aqueous acetone solution containing test compound in sufficient quantity to provide the equivalent of about 0.0156 to 0.500 kg per hectare of test compound per cup. The treated cups are then placed on greenhouse benches, watered and cared for in accordance with conventional greenhouse procedures. From four to five weeks after treatment, the tests are terminated and each cup is examined and rated according to the rating system provided in Example 37.
The compounds evaluated are reported by compound number given in Example 37.

[5] = test system: IPOSS (Morningglory Spp.); test: Postemergence herbicidal evaluation; assay type: in vivo, Ipomoea Spp.
Description: In the tests, seedling plants are grown in jiffy flats for about two weeks. The test compounds are dispersed in 50/50 acetone/water mixtures containing 0.5% TWEEN®20, a polyoxyethylene sorbitan monolaurate surfactant of Atlas Chemical Industries, in sufficient quantities to provide the equivalent of about 0.0156 kg to 0.500 kg per hectare of active compound when applied to the plants through a spray nozzle operating at 40 psi for a predetermined time. After spraying, the plants are placed on greenhouse benches and are cared for in accordance with conventional greenhouse procedures. From four to five weeks after treatment, the seedling plants are examined and rated according to the rating system set forth below. Where more than one test is involved for a given compound, the data are averaged.
Plant species employed in these evaluations are reported by header abbreviation, common name and scientific name.
as §3

CN1C(=O)CSC1=Nc1cc(N2C(=O)C3=C(CCCC3)C2=O)c(F)cc1Cl [Compound 1, N-{4-chloro-2-fluoro-5-[(3-methyl-4-oxo-2-thiazolidinylidene)amino]phenyl}-1-cyclohexene-1,2-dicarboximide]
Herbicidal rating ECHORC ([1]; 0.0313 kg/ha): 2.0
Herbicidal rating ECHORC ([1]; 0.0625 kg/ha): 4.0
Herbicidal rating ECHORC ([1]; 0.1250 kg/ha): 6.0
Herbicidal rating ECHORC ([1]; 0.2500 kg/ha): 7.0
Herbicidal rating ECHORC ([1]; 0.5000 kg/ha): 9.0
ABUTH preemergence herbicidal rating (ABUTH (Velvetleaf); rate 0.0313 kg/ha): 5.0
ABUTH preemergence herbicidal rating (ABUTH (Velvetleaf); rate 0.0625 kg/ha): 9.0
ABUTH preemergence herbicidal rating (ABUTH (Velvetleaf); rate 0.1250 kg/ha): 9.0
ABUTH preemergence herbicidal rating (ABUTH (Velvetleaf); rate 0.2500 kg/ha): 9.0
ABUTH preemergence herbicidal rating (ABUTH (Velvetleaf); rate 0.5000 kg/ha): 9.0
Herbicidal rating CYPIR (CYPIR (Rice Flatsedge); 0.0313 kg/ha): 2.0
Herbicidal rating CYPIR (CYPIR (Rice Flatsedge); 0.0625 kg/ha): 7.0
Herbicidal rating CYPIR (CYPIR (Rice Flatsedge); 0.1250 kg/ha): 9.0
Herbicidal rating CYPIR (CYPIR (Rice Flatsedge); 0.2500 kg/ha): 9.0
Herbicidal rating CYPIR (CYPIR (Rice Flatsedge); 0.5000 kg/ha): 9.0
TRZAWR preemergence herbicidal rating ([2]; rate 0.0313 kg/ha): 2.0
TRZAWR preemergence herbicidal rating ([2]; rate 0.0625 kg/ha): 4.0
TRZAWR preemergence herbicidal rating ([2]; rate 0.1250 kg/ha): 3.0
TRZAWR preemergence herbicidal rating ([2]; rate 0.2500 kg/ha): 6.0
TRZAWR preemergence herbicidal rating ([2]; rate 0.5000 kg/ha): 6.0
Herbicidal rating SAGPY ([3]; 0.0313 kg/ha): 0.0
Herbicidal rating SAGPY ([3]; 0.0625 kg/ha): 0.0
Herbicidal rating SAGPY ([3]; 0.1250 kg/ha): 0.0
Herbicidal rating SAGPY ([3]; 0.2500 kg/ha): 0.0
Herbicidal rating SAGPY ([3]; 0.5000 kg/ha): 0.0
Herbicidal rating MOOVA (MOOVA (Monochoria); rate 0.0313 kg/ha): 4.0
Herbicidal rating MOOVA (MOOVA (Monochoria); rate 0.0625 kg/ha): 4.5
Herbicidal rating MOOVA (MOOVA (Monochoria); rate 0.1250 kg/ha): 4.5
Herbicidal rating MOOVA (MOOVA (Monochoria); rate 0.2500 kg/ha): 5.0
Herbicidal rating MOOVA (MOOVA (Monochoria); rate 0.5000 kg/ha): 5.5
IPOSS preemergence herbicidal rating ([4]; rate 0.0313 kg/ha): 1.0
IPOSS preemergence herbicidal rating ([4]; rate 0.0625 kg/ha): 6.0
IPOSS preemergence herbicidal rating ([4]; rate 0.1250 kg/ha): 7.0
IPOSS preemergence herbicidal rating ([4]; rate 0.2500 kg/ha): 6.0
IPOSS preemergence herbicidal rating ([4]; rate 0.5000 kg/ha): 8.0
IPOSS herbicidal rating ([5]; rate 0.0157 kg/ha): 6.0
IPOSS herbicidal rating ([5]; rate 0.0313 kg/ha): 9.0
IPOSS herbicidal rating ([5]; rate 0.0625 kg/ha): 9.0
IPOSS herbicidal rating ([5]; rate 0.1250 kg/ha): 9.0
IPOSS herbicidal rating ([5]; rate 0.2500 kg/ha): 9.0
IPOSS herbicidal rating ([5]; rate 0.5000 kg/ha): 9.0
